In patent publication US6175013A, “Imidazolinyl tachykinin receptor antagonists” (Eli Lilly and Company, priority 1994, dated 2001):

How the values were obtained:
NK-1 receptor = target: T1, NK-1 receptor (Homo sapiens, UniProt P25103); experiment: NK-1 Receptor Binding Assay (125I-substance P, IM9 cells); settings: 20 pM 125I-labeled substance P, 45 minutes at 4° C., may be average of more than one experiment, read-out: IC50, inhibition of binding of substance P
T1 construct: an aliquot of IM9 cells; endogenous in cells; host or cells: IM9 cells
Description: (§1) The biological activity of the compounds of the present invention was evaluated employing an initial screening assay which rapidly and accurately measured the binding of the tested compound to known NK-1 and NK-2 receptor sites. Assays useful for evaluating tachykinin receptor antagonists are well known in the art. See, e.g., J. Jukic, et al., Life Sciences, 49:1463-1469 (1991); N. Kucharczyk, et al., Journal of Medicinal Chemistry, 36:1654-1661 (1993); N. Rouissi, et al., Biochemical and Bioohysical Research Communications, 176:894-901 (1991).
NK-1 Receptor Binding Assay
Radioreceptor binding assays were performed using a derivative of a previously published protocol. D. G. Payan, et al., Journal of Immunology, 133:3260-3265 (1984). In this assay an aliquot of IM9 cells (1×10^6 cells/tube in […] medium supplemented with 10% fetal calf serum) was incubated with 20 pM ^125 I-labeled substance P in the presence of increasing competitor concentrations for 45 minutes at 4° C.
The IM9 cell line is a well-characterized cell line which is readily available to the public. See, e.g., Annals of the New York Academy of Science, 190: 221-234 (1972); Nature (London), 251:443-444 (1974); Proceedings of the National Academy of Sciences (USA), 71:84-88 (1974). These cells were routinely cultured in RPMI 1640 supplemented with 50 gg/ml gentamicin sulfate and 10% fetal calf serum.
The reaction was terminated by filtration through a glass fiber filter harvesting system using filters previously soaked for 20 minutes in 0.1% polyethylenimine. Specific binding of labeled substance P was determined in the presence of 20 nM unlabeled ligand.
Column 1 provides the example number of the test antagonist compound. The second column depicts the results of the competition assays, detailing the concentration of the test compound (in micromolar quantities) which inhibits fifty percent of the binding of substance P (IC50). Certain values may represent the average of more than one experiment.

human NK-2 receptor = target: T2, human NK-2 receptor (Homo sapiens, UniProt P21452); experiment: NK-2 Receptor Binding Assay ([125I]iodohistidyl-neurokinin A, CHO-hNK-2R cell membranes); settings: CHO-hNK-2R membranes, 20 pM [125I]iodohistidyl-neurokinin A; for IC50: 1 hr room temperature, read-out: IC50, inhibition of binding of neurokinin A
T2 construct: expressed in transfected cells; host or cells: CHO-hNK-2R cells (CHO-derived)
T2 sequence (P21452 1-398): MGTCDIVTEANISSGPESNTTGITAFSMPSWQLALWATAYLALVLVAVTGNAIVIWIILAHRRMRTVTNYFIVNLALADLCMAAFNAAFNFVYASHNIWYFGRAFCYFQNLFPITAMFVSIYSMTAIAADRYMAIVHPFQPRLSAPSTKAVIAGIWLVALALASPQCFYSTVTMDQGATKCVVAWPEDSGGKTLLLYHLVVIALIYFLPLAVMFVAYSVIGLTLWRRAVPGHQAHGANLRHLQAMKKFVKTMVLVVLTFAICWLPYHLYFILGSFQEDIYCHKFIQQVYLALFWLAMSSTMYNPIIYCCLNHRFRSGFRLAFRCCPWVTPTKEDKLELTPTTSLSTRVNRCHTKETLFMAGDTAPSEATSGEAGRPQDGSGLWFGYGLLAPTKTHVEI
Description: as §1
NK-2 Receptor Binding Assay
The CHO-hNK-2R cells, a CHO-derived cell line transformed with the human NK-2 receptor, expressing about 400,000 such receptors per cell, were grown in 75 cm^2 flasks or roller bottles in minimal essential medium (alpha modification) with 10% fetal bovine serum. The gene sequence of the human NK-2 receptor is given in N. P. Gerard, et al., Journal of Biological Chemistry, 65:20455-20462 (1990).
For preparation of membranes, 30 confluent roller bottle cultures were dissociated by washing each roller bottle with 10 ml of Dulbecco's phosphate buffered saline (PBS) without calcium and magnesium, followed by addition of 10 ml of enzyme-free cell dissociation solution (PBS-based, from Specialty Media, Inc.). After an additional 15 minutes, the dissociated cells were pooled and centrifuged at 1,000 RPM for 10 minutes in a clinical centrifuge. Membranes were prepared by homogenization of the cell pellets in 300 ml 50 mM Tris buffer, pH 7.4 with a Tekmar® homogenizer for 10-15 seconds, followed by centrifugation at 12,000 RPM (20,000×g) for 30 minutes using a Beckman JA-14® rotor. The pellets were washed once using the above procedure. and the final pellets were resuspended in 100-120 ml 50 mM Tris buffer, pH 7.4, and 4 ml aliquots stored frozen at -70° C. The protein concentration of this preparation was 2 mg/ml.
For the receptor binding assay, one 4-ml aliquot of the CHO-hNK-2R membrane preparation was suspended in 40 ml of assay buffer containing 50 mM Tris, pH 7.4, 3 mM manganese chloride, 0.02% bovine serum albumin (BSA) and 4 μg/ml chymostatin. A 200 μl volume of the homogenate (40 μg protein) was used per sample. The radioactive ligand was [^125 I]iodohistidyl-neurokinin A (New England Nuclear, NEX-252), 2200 Ci/mmol. […] Non-specific binding was determined using 1 μM eledoisin. […]
All samples and standards were added to the incubation in 10 μl dimethylsulfoxide (DMSO) for screening (single dose) or in 5μl DMSO for IC50 determinations. […] The filter was washed 3 times with approximately 3 ml of cold 50 mM Tris buffer, pH 7.7, The filter circles were then punched into 12×75 mn polystyrene tubes and counted in a gamma counter. […]

T1 sequence (P25103 whole entry): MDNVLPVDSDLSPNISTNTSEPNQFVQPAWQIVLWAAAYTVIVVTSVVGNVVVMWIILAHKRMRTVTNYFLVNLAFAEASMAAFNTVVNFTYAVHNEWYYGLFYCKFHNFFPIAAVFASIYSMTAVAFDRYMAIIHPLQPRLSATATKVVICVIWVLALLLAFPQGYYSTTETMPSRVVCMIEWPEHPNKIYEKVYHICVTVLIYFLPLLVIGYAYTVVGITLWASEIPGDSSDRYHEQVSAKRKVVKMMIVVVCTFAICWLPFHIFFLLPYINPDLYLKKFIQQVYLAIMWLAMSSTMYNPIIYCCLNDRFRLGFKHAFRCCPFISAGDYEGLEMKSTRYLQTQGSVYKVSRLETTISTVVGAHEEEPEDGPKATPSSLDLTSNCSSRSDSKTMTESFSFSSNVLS

COc1ccccc1CN1CC(c2ccccc2)N=C1C (centres unmarked) [Example 1, 1-(2-methoxybenzyl)-2-methyl-4-phenyl-2-imidazoline]
IC50 (NK-1 receptor): 180 nM
IC50 (human NK-2 receptor): 16000 nM

COc1ccccc1CN1CC(Cc2c[nH]c3ccccc23)N=C1CN1CCN(c2ccccc2)CC1 (centres unmarked) [Example 2, 1-(2-methoxybenzyl)-2-[(4-phenyl-1-piperazinyl)methyl]-4-(1H-indol-3-ylmethyl)-2-imidazoline]
IC50 (NK-1 receptor): 120 nM
IC50 (human NK-2 receptor): 470 nM

COc1ccccc1CN1CC(C)(Cc2c[nH]c3ccccc23)N=C1C (centres unmarked) [Example 3, 1-(2-methoxybenzyl)-2,4-dimethyl-4-(1H-indol-3-ylmethyl)-2-imidazoline]
IC50 (NK-1 receptor): 560 nM
IC50 (human NK-2 receptor): 9100 nM

COc1ccccc1CN1CC(Cc2ccccc2)N=C1C (centres unmarked) [Example 4, 1-(2-methoxybenzyl)-2-methyl-4-benzyl-2-imidazoline]
IC50 (NK-1 receptor): 140 nM
inhibition at 10 µM (human NK-2 receptor; at 10 μM, read-out: percent inhibition of neurokinin A binding): 21%
